In patent publication US6953813B1, “2-Aminotetralin derivatives for the therapy of glaucoma” (Chiesi Farmaceutici S.p.A., priority 1999, dated 2005):

Tests used:
[1] = in vivo; cited from earlier work
[2] = system: rabbit; details: cited from earlier work; for effect on intraocular pressure: ophthalmic drops
[3] = system: normotensive Dutch Belted rabbits; assay: Intraocular pressure (IOP) after single dose in normotensive rabbits; format: in vivo, rabbit; details: 0.2% w/v
Description: Water (pH 4.5, made isotonic with sodium chloride), was selected as vehicle for the IOP-studies.
Five concentrations (0.01, 0.05, 0.2, 0.5 and 1.0% w/v) of CHF 1035 were studied. Brimonidine (0.2% w/v) was used as a positive, and vehicle (water pH 4.5) as a negative control.
The experimental animals used were normotensive Dutch Belted rabbits of either gender (n=6). A single drop (25 μl) of the test solution was instilled unilaterally into the left eye (treated eye). IOP of the rabbits (treated and untreated eyes) was measured at 1 and 0 h before, and at 0.5, 1, 2, 3, 4, 5, 6 and 7 h after topical eyedrop administration. IOP at the time of eyedrop administration (0 h) was used as a baseline value. IOP was measured using a BioRad Pneumatonometer. More detailed description of the IOP measurement procedure can be found in Pharm. Res. 14, 1738-1743, 1997 and Curr. Eye Res. 14, 791-797, 1995. All the studies were set up using a randomized crossover design. At least 72 h of wash-out time was allowed for each rabbit between dosings. The irritation caused by an instilled eyedrop were evaluated by recording the extent of eyelid closure after topical eyedrop administration.

In the case of `CCCN(CCc1cccs1)C1CCc2c(O)cccc2C1` (stereo not drawn) [2-(N-propyl-N-2-thienylethylamino)-5-hydroxytetralin], the ocular side effects [1] is given as “can also induce eye irritation”.

In the case of `CN(C)C1CCc2c(ccc(O)c2O)C1` (stereo not drawn) [M-7, N,N-dimethyl-5,6-dihydroxy-2-aminotetralin], the “concentration inducing eye irritation” value ([2]; in vivo) is given as 0.1% and the “effect on intraocular pressure” value [2] is given as “active as well in reducing intraocular pressure”.

In the case of `Brc1c(NC2=NCCN2)ccc2nccnc12` [Brimonidine, reference compound], the “IOP changes (mean ± SEM) in the treated eye” value ([3]; 0 min) is reported as 0.0 ± 0.0 mmHg, the “IOP changes (mean ± SEM) in the treated eye” value ([3]; 30 min) is reported as −2.7 ± 0.9 mmHg and the “IOP changes (mean ± SEM) in the treated eye” value ([3]; 60 min) is reported as −7.8 ± 0.9 mmHg. For the same compound, the “IOP changes (mean ± SEM) in the treated eye” value ([3]; 120 min) was −6.2 ± 1.4 mmHg, the “IOP changes (mean ± SEM) in the treated eye” value ([3]; 180 min) was −3.9 ± 0.8 mmHg and the “IOP changes (mean ± SEM) in the treated eye” value ([3]; 240 min) was −3.4 ± 0.7 mmHg. For the same compound, the “IOP changes (mean ± SEM) in the treated eye” value ([3]; 300 min) was −2.4 ± 0.7 mmHg, the “IOP changes (mean ± SEM) in the treated eye” value ([3]; 360 min) was −0.4 ± 0.6 mmHg and the “IOP changes (mean ± SEM) in the treated eye” value ([3]; 420 min) was 0.2 ± 0.3 mmHg. For the same compound, the “IOP changes (mean ± SEM) in the untreated eye” value ([3]; 0 min) was 0.0 ± 0.0 mmHg, the “IOP changes (mean ± SEM) in the untreated eye” value ([3]; 30 min) was −3.2 ± 1.2 mmHg and the “IOP changes (mean ± SEM) in the untreated eye” value ([3]; 60 min) was −8.7 ± 0.8 mmHg. For the same compound, the “IOP changes (mean ± SEM) in the untreated eye” value ([3]; 120 min) was −3.3 ± 1.3 mmHg, the “IOP changes (mean ± SEM) in the untreated eye” value ([3]; 180 min) was −1.7 ± 0.9 mmHg and the “IOP changes (mean ± SEM) in the untreated eye” value ([3]; 240 min) was −2.1 ± 1.0 mmHg. The “IOP changes (mean ± SEM) in the untreated eye” value ([3]; 300 min) was −0.6 ± 0.9 mmHg, the “IOP changes (mean ± SEM) in the untreated eye” value ([3]; 360 min) was 0.1 ± 0.6 mmHg and the “IOP changes (mean ± SEM) in the untreated eye” value ([3]; 420 min) was 0.0 ± 0.6 mmHg.

In the case of `CNCC(O)c1ccc(OC(=O)C(C)(C)C)c(OC(=O)C(C)(C)C)c1` (stereo not drawn) [Dipivefrin], the ocular side effects [1] is listed as “pain in the eye and in the superciliary arch as well as corneal vascularization and opacification during long-term use”.

In the case of `NC1CCc2cc(O)c(O)cc2C1` (stereo not drawn) [6,7-dihydroxy-2-aminotetralin], the “effect on intraocular pressure” value [2] is listed as “gives rise to eye hypotension in the rabbit”.

For `CN(C)C1CCc2cc(O)c(O)cc2C1` (stereo not drawn) [N,N-dimethyl-6,7-dihydroxy-2-aminotetralin], the “effect on intraocular pressure” value [2] is given as “gives rise to eye hypotension in the rabbit”.
